One series deals with T1, human GLP-2 receptor (Homo sapiens, UniProt O95838, D470N).
T1 construct: expressed in transfected cells
T1 sequence (O95838 1-553 D470N): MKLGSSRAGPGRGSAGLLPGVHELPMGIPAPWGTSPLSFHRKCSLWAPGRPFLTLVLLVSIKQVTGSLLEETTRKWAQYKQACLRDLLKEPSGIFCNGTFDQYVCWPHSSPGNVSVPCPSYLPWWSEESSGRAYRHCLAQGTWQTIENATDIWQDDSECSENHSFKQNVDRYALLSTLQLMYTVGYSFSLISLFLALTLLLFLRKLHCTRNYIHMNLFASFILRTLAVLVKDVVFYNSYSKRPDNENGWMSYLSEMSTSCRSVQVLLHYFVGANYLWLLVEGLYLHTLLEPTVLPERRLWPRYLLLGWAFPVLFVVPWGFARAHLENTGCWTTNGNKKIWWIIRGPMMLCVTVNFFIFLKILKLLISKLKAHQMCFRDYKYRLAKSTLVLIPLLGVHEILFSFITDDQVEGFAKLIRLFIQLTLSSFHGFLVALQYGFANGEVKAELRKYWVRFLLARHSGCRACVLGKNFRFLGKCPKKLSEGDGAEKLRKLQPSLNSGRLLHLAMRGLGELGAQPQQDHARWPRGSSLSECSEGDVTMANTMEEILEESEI
The series is described as follows: GLP-2 receptor potency assay (cAMP ALPHASCREEN, HEK293 cells stably expressing GLP-2 R). Format: cell-based. Particulars: cAMP response, HEK293 cells expressing human GLP-2 R; read-out: EC50 GLP-2. The source says:
One useful in vitro assay for measuring GLP-1 and GLP-2 receptor activity is quantitation of cAMP, i.e. 3′-5′-cyclic adenosine monophosphate, which is a second messenger essential in many biological processes, and one of the most ubiquitous mechanisms for regulating cellular functions.
For subcloning into a mammalian expression vector, primers for subcloning were obtained from DNA-Technology, Risskov, Denmark. The 5′ and 3′ primers used for the PCR reaction include terminal restriction sites for cloning and the context of the 5′ primer is modified to a Kozak consensus without changing the sequence of the product encoded by the ORF. […] The generated PCR product was purified using GFX PCR and Gel band purification kit, digested with restriction enzymes and cloned into the mammalian expression vector using Rapid DNA Ligation Kit. Ligation reaction was transformed to XL10 Gold Ultracompetent cells and colonies were picked for DNA production using ENDOFREE® Plasmid maxi kit. Subsequent sequence analysis was conducted by MWG Eurofins, Germany.
HEK293 cells were transfected using the LIPOFECTAMINE® PLUS transfection method. The day before transfection, HEK293 cells were seeded in two T75 flasks at a density of 2×10^6 cells/T75 flask in cell culturing medium without antibiotics. On the day of transfection, cells were washed with 1× DPBS and medium was replaced with OPTI-MEM© to a volume of 5 mL/T75 flask before addition of LIPOFECTAMINE®-plasmid complexes were added gently and drop wise to the cells in T75 flasks and replaced with growth medium after 3 hours and again to growth medium supplemented with 500 μg/mL G418 after 24 hours. Following 4 weeks in G418 selection, clones were picked and tested in a functional GLP-2 receptor potency assay as described below.
The cAMP ALPHASCREEN® assay from Perkin Elmer was used to quantitate the cAMP response to activation of the GLP1 and GLP2 receptor, respectively. […] Data from test compounds eliciting an increase in the intracellular level of cAMP were normalized relative to the positive and negative control (vehicle) to calculate the EC50 and maximal response from the concentration response curve.
In general terms: In Alpha technology, singlet oxygen from a donor bead excites a nearby acceptor bead.

Series [1] is described as follows: Chemical stability (RP-HPLC normalized purity after incubation at 40° C.). The series is classed as physicochemical. To be noted: pH 7, 40° C., 14-day incubation, 0.2 mg/ml, normalized purity (area-%). The gist of the method: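 Peptide at 0.2 mg/ml final in water adjusted to pH 6, 7, 7.5 or 9, incubated at 40° C for 14 days. Purity measured as main-peak area-% by C18 RP-HPLC (acetonitrile/TFA/water gradient, UV 220 nm) and normalized to T=0 set at 100 for each pH.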

Series [2] in a line: Solubility assessment (turbidity absorbance at 325 nm). Format: physicochemical. The procedure, abridged:
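Peptide stock at 2 mg/ml in water at pH 2.5 diluted 1:1 into 100 mM acetate (pH 4.0, 5.0), histidine (pH 6.0, 7.0) or phosphate (pH 6.0, 7.0, 7.5) buffer. Absorbance at 280 and 325 nm read at ambient temperature (typically 25 °C), single samples (n=1).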

Read-outs that look alike come from different tables or passages of the source. *1 amine or outer side, *2 acyl side, *3 side chain or, on linkers, in order; H or OH if unused. Where a SMILES comes first, the peptide text is derived from it. Side-chain parts run from the residue outwards. [ ]: non-standard residue; d: D form. The star is where a group is joined. C20 diacid = O=C(O)CCCCCCCCCCCCCCCCCCC(=O)*; γGlu = O=C(O)[C@H](CCC(=O)[*:2])N[*:1]; AEEA = NCCOCCOCC(=O)O; Aib = CC(C)(N)C(=O)O

As usually defined, the EC50 is the concentration that produces a half-maximal response. With `CC[C@H](C)[C@H](NC(=O)[C@H](Cc1ccccc1)NC(=O)[C@H](CC(=O)O)NC(=O)[C@H](CCCNC(=N)N)NC(=O)[C@H](C)NC(=O)[C@H](C)NC(=O)[C@H](CCC(N)=O)NC(=O)[C@H](CCC(=O)O)NC(=O)[C@H](CC(=O)O)NC(=O)[C@H](CC(C)C)NC(=O)[C@@H](NC(=O)[C@@H](NC(=O)[C@H](C)NC(=O)[C@H](CCCCNC(=O)COCCOCCNC(=O)COCCOCCNC(=O)CC[C@H](NC(=O)CCCCCCCCCCCCCCCCCCC(=O)O)C(=O)O)NC(=O)[C@H](CCC(=O)O)NC(=O)[C@H](CO)NC(=O)[C@@H](NC(=O)[C@H](Cc1ccccc1)NC(=O)[C@H](CO)NC(=O)CNC(=O)[C@H](CCC(=O)O)NC(=O)C(C)(C)NC(=O)[C@@H](N)Cc1c[nH]cn1)[C@@H](C)O)[C@@H](C)O)[C@@H](C)CC)C(=O)N[C@@H](C)C(=O)N[C@@H](Cc1c[nH]c2ccccc12)C(=O)N[C@@H](CC(C)C)C(=O)N[C@H](C(=O)N[C@@H](CCC(=O)O)C(=O)N[C@@H](Cc1c[nH]cn1)C(=O)N[C@@H](CCCCN)C(=O)N[C@H](C(=O)N[C@H](C(=O)N[C@@H](CC(=O)O)C(=O)O)[C@@H](C)O)[C@@H](C)CC)[C@@H](C)CC` [Compound 42] (H-H[Aib]EGSFTSEK([AEEA-AEEA-γGlu-C20 diacid])ATILDEQAARDFIAWLIEHKITD-OH), the EC50 at human GLP-2 receptor is 0.33 nM. For the same molecule, the “pH 7 normalized stability” value in series [1] is given as “A (>90% normalised stability)”.
Consider `CC[C@H](C)[C@H](NC(=O)[C@H](Cc1ccccc1)NC(=O)[C@H](CC(=O)O)NC(=O)[C@H](CCCNC(=N)N)NC(=O)[C@H](C)NC(=O)[C@H](C)NC(=O)[C@H](CCC(=O)O)NC(=O)[C@H](CCCCNC(=O)CC[C@H](NC(=O)CCCCCCCCCCCCCCCCC(=O)O)C(=O)O)NC(=O)[C@H](CC(=O)O)NC(=O)[C@H](CC(C)C)NC(=O)[C@@H](NC(=O)[C@@H](NC(=O)[C@H](C)NC(=O)[C@H](CC(C)C)NC(=O)[C@H](CCC(=O)O)NC(=O)[C@H](CO)NC(=O)[C@@H](NC(=O)[C@H](Cc1ccccc1)NC(=O)[C@@H](NC(=O)CNC(=O)[C@H](CCC(=O)O)NC(=O)C(C)(C)NC(=O)[C@@H](N)Cc1c[nH]cn1)[C@@H](C)O)[C@@H](C)O)[C@@H](C)O)[C@@H](C)CC)C(=O)N[C@@H](C)C(=O)N[C@@H](Cc1c[nH]c2ccccc12)C(=O)N[C@@H](CC(C)C)C(=O)N[C@H](C(=O)N[C@@H](CCC(=O)O)C(=O)N[C@@H](Cc1c[nH]cn1)C(=O)N[C@@H](CCCCN)C(=O)N[C@H](C(=O)N[C@H](C(=O)N[C@@H](CC(=O)O)C(=O)O)[C@@H](C)O)[C@@H](C)CC)[C@@H](C)CC` [Compound 3] (HELM PEPTIDE1{H.[Aib].E.G.T.F.T.S.E.L.A.T.I.L.D.K.E.A.A.R.D.F.I.A.W.L.I.E.H.K.I.T.D}|PEPTIDE2{[O=C(O)CCCCCCCCCCCCCCCCC(=O)[*:2]].[gGlu]}$PEPTIDE1,PEPTIDE2,16:R3-2:R2$$$V2.0), for which the concentration for a half-maximal effect (EC50) at human GLP-2 receptor worked out at 0.33 nM.
For orientation: solubility means how much of the substance goes into solution per volume. On to `CC[C@H](C)[C@H](NC(=O)[C@H](Cc1ccccc1)NC(=O)[C@H](CC(=O)O)NC(=O)[C@H](CCCNC(=N)N)NC(=O)[C@H](C)NC(=O)[C@H](C)NC(=O)[C@H](CCC(N)=O)NC(=O)[C@H](CCCCNC(=O)CC[C@H](NC(=O)CCCCCCCCCCCCCCCCC(=O)O)C(=O)O)NC(=O)[C@H](CC(=O)O)NC(=O)[C@H](CC(C)C)NC(=O)[C@@H](NC(=O)[C@@H](NC(=O)[C@H](C)NC(=O)[C@H](CC(C)C)NC(=O)[C@H](CCC(=O)O)NC(=O)[C@H](CO)NC(=O)[C@H](CO)NC(=O)[C@H](Cc1ccccc1)NC(=O)[C@@H](NC(=O)CNC(=O)[C@H](CCC(=O)O)NC(=O)C(C)(C)NC(=O)[C@@H](N)Cc1c[nH]cn1)[C@@H](C)O)[C@@H](C)O)[C@@H](C)CC)C(=O)N[C@@H](C)C(=O)N[C@@H](Cc1c[nH]c2ccccc12)C(=O)N[C@@H](CC(C)C)C(=O)N[C@H](C(=O)N[C@@H](CCC(N)=O)C(=O)N[C@@H](Cc1c[nH]cn1)C(=O)N[C@@H](CCCCN)C(=O)N[C@H](C(=O)N[C@H](C(=O)N[C@@H](CC(=O)O)C(=O)O)[C@@H](C)O)[C@@H](C)CC)[C@@H](C)CC` [Compound 17] (HELM PEPTIDE1{H.[Aib].E.G.T.F.S.S.E.L.A.T.I.L.D.K.Q.A.A.R.D.F.I.A.W.L.I.Q.H.K.I.T.D}|PEPTIDE2{[O=C(O)CCCCCCCCCCCCCCCCC(=O)[*:2]].[gGlu]}$PEPTIDE1,PEPTIDE2,16:R3-2:R2$$$V2.0), for which the concentration for a half-maximal effect (EC50) on human GLP-2 receptor is 0.33 nM. For the same molecule, the solubility in series [2] (100 mM acetate buffer pH 4.0, ambient temperature, read-out: Solubility Acetate buffer pH 4) is under 1 mg/mL; in series [2] (100 mM acetate buffer pH 5.0, ambient temperature, read-out: Solubility Acetate buffer pH 5), under 1 mg/mL; in series [2] (100 mM histidine buffer pH 6.0, ambient temperature, read-out: Solubility Histidine buffer pH 6), at least 1 mg/mL; in series [2] (100 mM histidine buffer pH 7.0, ambient temperature, read-out: Solubility Histidine buffer pH 7) it was at least 1 mg/mL; in series [2] (100 mM phosphate buffer pH 6.0, ambient temperature, read-out: Solubility Phosphate buffer pH 6), at least 1 mg/mL; in series [2] (100 mM phosphate buffer pH 7.0, ambient temperature, read-out: Solubility Phosphate buffer pH 7), at least 1 mg/mL. In series [2] (100 mM phosphate buffer pH 7.5, ambient temperature, read-out: Solubility Phosphate buffer pH 7.5), the solubility was at least 1 mg/mL.
In the case of `CC[C@H](C)[C@H](NC(=O)[C@H](Cc1ccccc1)NC(=O)[C@H](CC(=O)O)NC(=O)[C@H](CCCNC(=N)N)NC(=O)[C@H](C)NC(=O)[C@H](C)NC(=O)[C@H](CCCCN)NC(=O)[C@H](CCCCNC(=O)COCCOCCNC(=O)COCCOCCNC(=O)CC[C@H](NC(=O)CCCCCCCCCCCCCCCCCCC(=O)O)C(=O)O)NC(=O)[C@H](CC(=O)O)NC(=O)[C@H](CC(C)C)NC(=O)[C@@H](NC(=O)[C@@H](NC(=O)[C@H](C)NC(=O)[C@H](CC(C)C)NC(=O)[C@H](CCC(=O)O)NC(=O)[C@H](CO)NC(=O)[C@@H](NC(=O)[C@H](Cc1ccccc1)NC(=O)[C@H](CO)NC(=O)CNC(=O)[C@H](CCC(=O)O)NC(=O)C(C)(C)NC(=O)[C@@H](N)Cc1c[nH]cn1)[C@@H](C)O)[C@@H](C)O)[C@@H](C)CC)C(=O)N[C@@H](C)C(=O)N[C@@H](Cc1c[nH]c2ccccc12)C(=O)N[C@@H](CC(C)C)C(=O)N[C@H](C(=O)N[C@@H](CCC(=O)O)C(=O)N[C@@H](Cc1c[nH]cn1)C(=O)N[C@@H](CCCCN)C(=O)N[C@H](C(=O)N[C@H](C(=O)N[C@@H](CC(=O)O)C(=O)O)[C@@H](C)O)[C@@H](C)CC)[C@@H](C)CC` [Compound 43] (H-H[Aib]EGSFTSELATILDK([AEEA-AEEA-γGlu-C20 diacid])KAARDFIAWLIEHKITD-OH), at human GLP-2 receptor, the EC50 amounted to 0.15 nM.

Source of the values: US11395847B2, “Acylated GLP-1/GLP-2 dual agonists” (Zealand Pharma A/S, priority 2016, dated 2022).
